Earlier results as cited in US10449129B2, “Encapsulates of salicylic acid and polysalicylic acid derivatives” (Biocogent, LLC, priority 2015, dated 2019).

Settings: room temperature

SMILES: O=C(O)c1ccccc1O [SA, salicylic acid]
- limit of solubility in water: approximately 0.2%
